Assay results reported in patent US20240058464A1 (Fortis Therapeutics, Inc., priority 2021, published 2024).

Tests used:
[1] = system: CD46 expression; test: CD46 expression by RNA-sequencing in paired tumor biopsies before and after therapy; details: paired biopsies; for CD46 expression, Post-Treatment Biopsy / CD46 expression, Pre-Treatment Biopsy: RNA-seq log2-transformed counts;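 on all read-outs here: FFPE human tumor biopsies, exome-capture RNA-seq, reads aligned to GRCh37, counts normalized for GC content, length and depth, summed per gene, log2-transformed, samples paired before versus after therapy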
[2] = system: CD46 expression; test: CD46 expression by RNA-sequencing in unpaired pre-treatment and post-treatment tumor biopsies; type: in vivo, human; details: for CD46 expression Post: post-treatment biopsies
[3] = Non-Small Cell Lung Cancer, Post minus Pre, unpaired biopsies, log2-transformed counts
[4] = Non-Small Cell Lung Cancer, post- vs pre-treatment unpaired biopsies
[5] = Non-Small Cell Lung Cancer, unpaired, RNA-seq log2-transformed normalized counts
[6] = Breast Cancer, Post minus Pre, unpaired biopsies, log2-transformed counts
[7] = Breast Cancer, post- vs pre-treatment unpaired biopsies
[8] = Breast Cancer, unpaired, RNA-seq log2-transformed normalized counts
[9] = Ovarian Cancer, Post minus Pre, unpaired biopsies, log2-transformed counts
[10] = Ovarian Cancer, post- vs pre-treatment unpaired biopsies
[11] = Ovarian Cancer, unpaired, RNA-seq log2-transformed normalized counts
[12] = Prostate Cancer, Post minus Pre, unpaired biopsies, log2-transformed counts
[13] = Prostate Cancer, post- vs pre-treatment unpaired biopsies
[14] = Colorectal Cancer, Post minus Pre, unpaired biopsies, log2-transformed counts
[15] = Colorectal Cancer, post- vs pre-treatment unpaired biopsies
[16] = Colorectal Cancer, unpaired, RNA-seq log2-transformed normalized counts
[17] = Prostate Cancer, unpaired, RNA-seq log2-transformed normalized counts

## durvalumab
[1]; Non-Small Cell Lung Cancer
  CD46 expression diff (post minus pre): 0.00
  Percent Change in CD46 expression: 0.0%
  CD46 expression, Post-Treatment Biopsy: 5.95
  CD46 expression, Pre-Treatment Biopsy: 5.95
[2]; [3]
  CD46 expression diff: −0.03
[2]; [4]
  CD46 expression Percentage change: −0.5%
[2]; [5]
  CD46 expression Post: 6.04

## ipilimumab
[1]; Melanoma
  CD46 expression diff (post minus pre): −0.06
  Percent Change in CD46 expression: −1.1%
  CD46 expression, Post-Treatment Biopsy: 5.26
  CD46 expression, Pre-Treatment Biopsy: 5.31
[2]; Clear Cell Renal Cell Carcinoma, Post minus Pre, unpaired biopsies, log2-transformed counts
  CD46 expression diff: −0.08
[2]; Clear Cell Renal Cell Carcinoma, post- vs pre-treatment unpaired biopsies
  CD46 expression Percentage change: −1.4%
[2]; Clear Cell Renal Cell Carcinoma, unpaired, RNA-seq log2-transformed normalized counts
  CD46 expression Post: 5.48
[2]; Melanoma, Post minus Pre, unpaired biopsies, log2-transformed counts
  CD46 expression diff: −0.06
[2]; Melanoma, post- vs pre-treatment unpaired biopsies
  CD46 expression Percentage change: −1.1%
[2]; Melanoma, unpaired, RNA-seq log2-transformed normalized counts
  CD46 expression Post: 5.30

## O=C(c1cc(Cc2n[nH]c(=O)c3ccccc23)ccc1F)N1CCN(C(=O)C2CC2)CC1 [olaparib]
[1]; Ovarian Cancer
  CD46 expression diff (post minus pre): −0.14
  Percent Change in CD46 expression: −2.5%
  CD46 expression, Post-Treatment Biopsy: 5.51
[2]; [6]
  CD46 expression diff: 0.04
[2]; [7]
  CD46 expression Percentage change: 0.6%
[2]; [8]
  CD46 expression Post: 6.15
[2]; [9]
  CD46 expression diff: −0.02
[2]; [10]
  CD46 expression Percentage change: −0.3%
[2]; [11]
  CD46 expression Post: 5.70

## Nc1nc2[nH]cc(CCc3ccc(C(=O)N[C@@H](CCC(=O)O)C(=O)O)cc3)c2c(=O)[nH]1 [pemetrexed]
[1]; Non-Small Cell Lung Cancer
  CD46 expression diff (post minus pre): −0.20
  Percent Change in CD46 expression: −3.1%
  CD46 expression, Post-Treatment Biopsy: 6.22
[2]; [3]
  CD46 expression diff: −0.11
[2]; [4]
  CD46 expression Percentage change: −1.8%
[2]; [5]
  CD46 expression Post: 6.27

## CO[C@H]1C(=O)[C@]2(C)[C@@H](OC)C[C@H]3OC[C@@]3(OC(C)=O)[C@H]2[C@H](OC(=O)c2ccccc2)[C@]2(O)C[C@H](OC(=O)[C@H](O)[C@@H](NC(=O)OC(C)(C)C)c3ccccc3)C(C)=C1C2(C)C [cabazitaxel]
[1]; Prostate Cancer
  CD46 expression diff (post minus pre): 0.07
  Percent Change in CD46 expression: 1.2%
  CD46 expression, Post-Treatment Biopsy: 5.93
[2]; [12]
  CD46 expression diff: 0.09
[2]; [13]
  CD46 expression Percentage change: 1.6%

## atezolizumab
[1]; Breast Cancer
  CD46 expression diff (post minus pre): −0.14
  Percent Change in CD46 expression: −2.4%
  CD46 expression, Post-Treatment Biopsy: 5.99
  CD46 expression, Pre-Treatment Biopsy: 6.14
[2]; [6]
  CD46 expression diff: 0.07
[2]; [7]
  CD46 expression Percentage change: 1.3%
[2]; [8]
  CD46 expression Post: 6.00
[2]; [3]
  CD46 expression diff: 0.00
[2]; [4]
  CD46 expression Percentage change: −0.1%
[2]; [5]
  CD46 expression Post: 6.04

## CCCCCOC(=O)Nc1nc(=O)n([C@@H]2O[C@H](C)[C@@H](O)[C@H]2O)cc1F [capecitabine]
[1]; Breast Cancer
  CD46 expression diff (post minus pre): −0.06
  Percent Change in CD46 expression: −0.9%
  CD46 expression, Post-Treatment Biopsy: 6.23
[1]; Colorectal Cancer
  CD46 expression diff (post minus pre): 0.06
  Percent Change in CD46 expression: 1.0%
[1]; Pancreatic Cancer
  CD46 expression diff (post minus pre): 0.16
  Percent Change in CD46 expression: 2.8%
  CD46 expression, Post-Treatment Biopsy: 5.98
[2]; Biliary Cancer, Post minus Pre, unpaired biopsies, log2-transformed counts
  CD46 expression diff: 0.10
[2]; Biliary Cancer, post- vs pre-treatment unpaired biopsies
  CD46 expression Percentage change: 1.8%
[2]; Biliary Cancer, unpaired, RNA-seq log2-transformed normalized counts
  CD46 expression Post: 5.87
[2]; [6]
  CD46 expression diff: −0.07
[2]; [7]
  CD46 expression Percentage change: −1.2%
[2]; [8]
  CD46 expression Post: 6.15
[2]; [14]
  CD46 expression diff: 0.05
[2]; [15]
  CD46 expression Percentage change: 0.8%
[2]; [16]
  CD46 expression Post: 6.43
[2]; Endocrine Tumor, Post minus Pre, unpaired biopsies, log2-transformed counts
  CD46 expression diff: 0.06
[2]; Endocrine Tumor, post- vs pre-treatment unpaired biopsies
  CD46 expression Percentage change: 1.1%
[2]; Endocrine Tumor, unpaired, RNA-seq log2-transformed normalized counts
  CD46 expression Post: 5.66
[2]; Esophageal Cancer, Post minus Pre, unpaired biopsies, log2-transformed counts
  CD46 expression diff: 0.05
[2]; Esophageal Cancer, post- vs pre-treatment unpaired biopsies
  CD46 expression Percentage change: 0.8%
[2]; Esophageal Cancer, unpaired, RNA-seq log2-transformed normalized counts
  CD46 expression Post: 6.02
[2]; Gastric Cancer, Post minus Pre, unpaired biopsies, log2-transformed counts
  CD46 expression diff: −0.04
[2]; Gastric Cancer, post- vs pre-treatment unpaired biopsies
  CD46 expression Percentage change: −0.7%
[2]; Gastric Cancer, unpaired, RNA-seq log2-transformed normalized counts
  CD46 expression Post: 5.73
[2]; Pancreatic Cancer, Post minus Pre, unpaired biopsies, log2-transformed counts
  CD46 expression diff: 0.07
[2]; Pancreatic Cancer, post- vs pre-treatment unpaired biopsies
  CD46 expression Percentage change: 1.2%
[2]; Pancreatic Cancer, unpaired, RNA-seq log2-transformed normalized counts
  CD46 expression Post: 5.93

## C[C@]12CC[C@@H]3c4ccc(O)cc4C[C@@H](CCCCCCCCC[S+]([O-])CCCC(F)(F)C(F)(F)F)[C@H]3[C@@H]1CC[C@@H]2O (some centres unmarked) [fulvestrant]
[1]; Breast Cancer
  CD46 expression diff (post minus pre): −0.13
  Percent Change in CD46 expression: −2.1%
  CD46 expression, Post-Treatment Biopsy: 6.44
[2]; [6]
  CD46 expression diff: −0.08
[2]; [7]
  CD46 expression Percentage change: −1.2%
[2]; [8]
  CD46 expression Post: 6.41

## C[C@]12CC[C@H](O)CC1=CC[C@@H]1[C@@H]2CC[C@]2(C)C(c3cccnc3)=CC[C@@H]12 [abiraterone]
[1]; Prostate Cancer
  CD46 expression diff (post minus pre): 0.29
  Percent Change in CD46 expression: 5.1%
[2]; [12]
  CD46 expression diff: −0.07
[2]; [13]
  CD46 expression Percentage change: −1.1%
[2]; [17]
  CD46 expression Post: 6.10

## COc1cccc2c1C(=O)c1c(O)c3c(c(O)c1C2=O)C[C@@](O)(C(=O)CO)C[C@@H]3O[C@H]1C[C@H](N)[C@H](O)[C@H](C)O1 [doxorubicin]
[1]; Breast Cancer
  CD46 expression diff (post minus pre): 0.12
  Percent Change in CD46 expression: 1.9%
  CD46 expression, Post-Treatment Biopsy: 6.27
[1]; Sarcoma
  CD46 expression diff (post minus pre): 0.20
  Percent Change in CD46 expression: 4.1%
  CD46 expression, Post-Treatment Biopsy: 5.19
[2]; Bladder Cancer, post minus pre, unpaired biopsies
  CD46 expression diff: −0.27
[2]; Bladder Cancer, post vs pre, unpaired biopsies
  CD46 expression Percentage change: −4.3%
[2]; Bladder Cancer, log2-transformed RNA-seq counts
  CD46 expression Post: 5.88
[2]; [6]
  CD46 expression diff: −0.02
[2]; [7]
  CD46 expression Percentage change: −0.3%
[2]; Sarcoma, Post minus Pre, unpaired biopsies, log2-transformed counts
  CD46 expression diff: 0.07
[2]; Sarcoma, post- vs pre-treatment unpaired biopsies
  CD46 expression Percentage change: 1.3%
[2]; Sarcoma, unpaired, RNA-seq log2-transformed normalized counts
  CD46 expression Post: 5.06

## CC(=O)O[C@@]12CO[C@@H]1C[C@H](O)[C@@]1(C)C(=O)[C@H](O)C3=C(C)[C@@H](OC(=O)[C@H](O)[C@@H](NC(=O)OC(C)(C)C)c4ccccc4)C[C@@](O)([C@@H](OC(=O)c4ccccc4)[C@H]21)C3(C)C [docetaxel]
[1]; Breast Cancer
  CD46 expression diff (post minus pre): 0.22
  Percent Change in CD46 expression: 3.7%
  CD46 expression, Post-Treatment Biopsy: 6.19
[1]; Prostate Cancer
  CD46 expression diff (post minus pre): −0.03
  Percent Change in CD46 expression: −0.4%
  CD46 expression, Post-Treatment Biopsy: 5.76
[2]; [6]
  CD46 expression diff: 0.04
[2]; [7]
  CD46 expression Percentage change: 0.7%
[2]; [8]
  CD46 expression Post: 6.23
[2]; Gastric Cancer, post minus pre, unpaired biopsies
  CD46 expression diff: −0.17
[2]; Gastric Cancer, post vs pre, unpaired biopsies
  CD46 expression Percentage change: −3.0%
[2]; Gastric Cancer, log2-transformed RNA-seq counts
  CD46 expression Post: 5.59
[2]; [3]
  CD46 expression diff: 0.02
[2]; [4]
  CD46 expression Percentage change: 0.3%
[2]; [9]
  CD46 expression diff: 0.12
[2]; [10]
  CD46 expression Percentage change: 2.1%
[2]; [11]
  CD46 expression Post: 5.88
[2]; [12]
  CD46 expression diff: −0.14
[2]; [13]
  CD46 expression Percentage change: −2.2%
[2]; [17]
  CD46 expression Post: 6.02
[2]; Sarcoma, post minus pre, unpaired biopsies
  CD46 expression diff: −0.14
[2]; Sarcoma, post vs pre, unpaired biopsies
  CD46 expression Percentage change: −2.8%
[2]; Sarcoma, log2-transformed RNA-seq counts
  CD46 expression Post: 5.00

## panitumumab
[1]; Colorectal Cancer
  CD46 expression diff (post minus pre): −0.10
  Percent Change in CD46 expression: −1.4%
  CD46 expression, Post-Treatment Biopsy: 6.62
  CD46 expression, Pre-Treatment Biopsy: 6.71
[2]; [14]
  CD46 expression diff: 0.28
[2]; [15]
  CD46 expression Percentage change: 4.4%
[2]; [16]
  CD46 expression Post: 6.64
